Data as given in patent US7989599B2, “Activator including biosurfactant as active ingredient, mannosyl erythritol lipid, and production method thereof” (Toyo Boseki Kabushiki Kaisha, priority 2009, dated 2011).

Experiment: Ability to form liquid crystal, water-invading method
Type: physicochemical
Conditions: polarization microscope, compared with conventional MEL, FIGS. 10 and 11
Description: Evaluation of the ability to form liquid crystals can be made by a conventional and publicly known method. An example of the method for easily comparing the ability to form liquid crystals is a water invading method. In this method, MEL is applied on a slide glass and distilled water is dropped beside the applied area, and a liquid crystal phase formed at an interface by dropping of the distilled water is observed by a microscope. Thus, behavior of liquid crystal formation can be searched. With the method, it is possible to easily compare the conventional MEL with the MEL optical isomer of the present invention in terms of their abilities to form liquid crystals.
MEL produced by Pseudozyma tsukubaensis JCM 10324 strain obtained in Example 8 and conventional MEL produced by Pseudozyma antarctica KM-34 (FERMP-20730) strain were compared with each other by a water-invading method in terms of their abilities to form liquid crystal.

For “1-(6′-acetyl-2′,3′-di-O-alka(ke)noyl-β-D-mannnopyranosyl-)meso-erythritol”, the “ability to form liquid crystal (lamella phase)” value was “has an ability to form lamella phase in a very wider concentration range than conventional MEL”.
